Assay results published in article PMC12700902 (Communications Biology, 2025).
Values joined by “and” are separate entries in the source; they are usually repeats but may differ in a detail not shown here. Identical values can stand only once. “Also recorded” adds a separate entry of the source. Like-named read-outs stand apart in the source and are kept apart here.

Columns and labels:
A. mellifera α5 nAChR = A. mellifera α5 nAChR (Apis mellifera, UniProt A0A0H3V1C5); test: Two-electrode voltage clamp of X. laevis oocytes expressing the A. mellifera α5 nAChR (wild-type); assay type: cell-based; settings: for normalised current response (Fig. 1c source data): single oocytes, normalised to maximal concentration of Fig. 1b
Sequence of A. mellifera α5 nAChR (A0A0H3V1C5 entry or part of it): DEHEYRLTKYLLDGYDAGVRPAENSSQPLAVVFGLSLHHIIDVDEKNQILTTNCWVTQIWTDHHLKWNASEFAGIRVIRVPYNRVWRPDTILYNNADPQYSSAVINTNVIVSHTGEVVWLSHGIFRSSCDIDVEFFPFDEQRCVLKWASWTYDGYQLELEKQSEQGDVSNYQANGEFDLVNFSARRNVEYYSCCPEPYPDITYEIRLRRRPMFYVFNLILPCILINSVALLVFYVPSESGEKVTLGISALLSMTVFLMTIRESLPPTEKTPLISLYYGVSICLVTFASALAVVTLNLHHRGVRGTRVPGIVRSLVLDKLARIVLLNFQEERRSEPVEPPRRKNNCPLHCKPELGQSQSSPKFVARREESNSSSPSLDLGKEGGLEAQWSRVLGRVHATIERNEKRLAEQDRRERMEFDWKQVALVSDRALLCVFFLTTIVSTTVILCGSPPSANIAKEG
Protocol: (§1) Oocytes were mainly obtained either from Ecocyte (https://ecocyte-us.com/products/xenopus-oocyte-delivery-service/), which arrived ready for injection, or from the European Xenopus Resource Centre (https://xenopusresource.org/resources) as ovarian sections. In the latter case, oocytes were either prepared for injection by incubation in collagenase type I in OR2 (sodium chloride 82 mM, potassium chloride 2 mM, magnesium chloride 2 mM, HEPES 5 mM, pH 7.6) at 2 mg/ml for 45 min at room temperature and shaking at 150 RPM[19] or by manual defolliculation followed by incubation with 0.5 mg/ml collagenase type I in OR2 for 6 min at room temperature at 150 RPM. Oocyte nuclei were injected with 23 nl of A. mellifera α5 DNA cloned into the pCI vector[19] […] Mutant A. mellifera α5 subunits (in pCI) were injected at 100–500 ng/µl. […] Oocytes were clamped at −80 mV and responses were recorded on a flatbed chart recorder (Kipp and Zonen BD-11E, Delft, The Netherlands). The oocytes were continuously perfused with SOS at a flow rate of 10 ml/min. Oocytes were selected for experiments if responses were consistent for two or more applications of the normalising concentration of agonist. Test chemicals were applied at 3 min intervals. Agonist concentration response curves were created by measuring the response of the oocytes to different agonist concentrations in SOS, responses were normalised to the maximal response induced by the agonist. Amitraz (10 mM) was dissolved in DMSO and then at a working concentration in 1:1000 ratio in SOS. All other chemicals were either dissolved in distilled water to make frozen stocks (100 mM) or dissolved directly in SOS (10 mM) on the day of use. […] Oocytes were clamped at voltages ranging between −100 and +40 mV to determine the current voltage relationship.
Concentration-response data were fitted with the Hill equation: y=Imax/1/EC50/agonist^nH where y is the normalised current amplitude, Imax is the maximal response Imax/Iagonistmax , EC50 is the agonist concentration at half-maximal efficacy, [agonist] is the agonist concentration and nH is the Hill coefficient, to estimate the EC50 and Hill coefficient. Curve fitting was carried out using GraphPad software version 10 (GraphPad Software, La Jolla, CA, United States). […] The peak of the current responses was normalised to the agonist concentration that gave a maximal response. Error bars on graphs show standard error, ‘n’ indicates the number of experiments and ‘batch’ indicates the number of frogs these oocytes came from. Values are shown as mean ± 95% confidence limits.

[1] = system: α5 subunit of D. melanogaster; settings: homomeric receptor; cited from earlier work
[2] = system: X. laevis oocytes injected with water only; test: Oocytes injected with water only; assay type: cell-based, Xenopus laevis
Protocol: as §1

[3] = 1 mM, applied 3 min after 5 mM ACh
[4] = read-out: Maximum response relative to 5 mM ACh (%)
[5] = Table 1 series, oocytes clamped at −80 mV, mean (95% confidence limits), read-out: EC50
[6] = Table 1 series, mean (95% confidence limits)

With `NCCCC(=O)O` [GABA, γ-aminobutyric acid] the agonist response (A. mellifera α5 nAChR; [3]) was “none of them were able to induce detectable responses; also recorded: no agonist actions”.
For `Cc1ccc(/N=C/N(C)/C=N/c2ccc(C)cc2C)c(C)c1` [amitraz], the antagonist action (A. mellifera α5 nAChR; 10 µM coapplied with 400 µM octopamine) was “no antagonist actions; also recorded: nor antagonistic actions” and the agonist action (A. mellifera α5 nAChR; 10 µM, applied 3 min after 5 mM ACh) was “no agonist actions; also recorded: did not show any agonist actions”.
In the case of α-bungarotoxin, the “antagonist action on ACh response” value (A. mellifera α5 nAChR) is reported as “antagonistic actions” and the “washing time after which response to 2 mM ACh was restored” value (A. mellifera α5 nAChR) is reported as 26 min.
In the case of `CC(=O)OCC[N+](C)(C)C` [Acetylcholine, acetylcholine], the Hill coefficient (A. mellifera α5 nAChR) is reported as 2.304 (1.886–2.721), the “effect of absence of Na+ on agonist response” value (A. mellifera α5 nAChR) is reported as “eliminated the response” and the response on co-application (A. mellifera α5 nAChR) is reported as “synergistic agonism”. For the same molecule, the “response when applied alone” value (A. mellifera α5 nAChR) was “did not induce detectable responses”, the “shape of concentration response curve” value (A. mellifera α5 nAChR) was “biphasic concentration response curve” and the Emax (A. mellifera α5 nAChR; [4]) was 100%. For the same molecule, the EC50 [1] was 8.8 µM.
In the case of `NCCc1c[nH]cn1` [Histamine, histamine], the Hill coefficient (A. mellifera α5 nAChR) is reported as 2.500 (1.050–3.950), the “type of agonist action relative to ACh” value (A. mellifera α5 nAChR) is reported as “partial agonist” and the EC50 (A. mellifera α5 nAChR; [5]) is reported as 3360 µM. It also gave an Emax at 5000 µM (A. mellifera α5 nAChR; [4]) of 45.3%.
In the case of `NCC(O)c1ccc(O)cc1` (stereo not shown) [Octopamine, octopamine], the Hill coefficient (A. mellifera α5 nAChR; [6]) is reported as 3.727 (2.998–4.455), the EC50 (A. mellifera α5 nAChR; [5]) is reported as 378 µM and the “normalised current response (Fig. 1c source data)” value (from here on “normalised current response”) (A. mellifera α5 nAChR; log[Agonist] M -2.22185, listed as OA) is reported as 1.1 and 0.809. For the same molecule, the “normalised current response” value (A. mellifera α5 nAChR; log[Agonist] M -2.52288, listed as OA) was 0.943 and 1.14 and 0.971 and 0.986 and 0.935 and 1.1, the “normalised current response” value (A. mellifera α5 nAChR; log[Agonist] M -3) was 1 and the “normalised current response” value (A. mellifera α5 nAChR; log[Agonist] M -3.22185, listed as OA) was 0.892 and 0.674 and 0.971 and 0.901 and 1.01 and 0.859. The “normalised current response” value (A. mellifera α5 nAChR; log[Agonist] M -3.30103, listed as OA) was 0.827 and 0.623, the “normalised current response” value (A. mellifera α5 nAChR; log[Agonist] M -3.52288, listed as OA) was 0.284 and 0.276 and 0.462 and 0.451 and 0.389 and 0.232 and the “normalised current response” value (A. mellifera α5 nAChR; log[Agonist] M -5) was 0. The Emax at 1000 µM (A. mellifera α5 nAChR; [4]) was 899%, the “type of agonist action relative to ACh” value (A. mellifera α5 nAChR; wild-type) was “superagonists” and the “response of water-injected oocytes” value [2] was “no tyramine and octopamine responses”.
With `NCCc1ccc(O)cc1` [Tyramine, tyramine] the Hill coefficient (A. mellifera α5 nAChR; [6]) was 1.918 (1.355–2.481), the EC50 (A. mellifera α5 nAChR; [5]) was 91.1 µM and the “normalised current response” value (A. mellifera α5 nAChR; log[Agonist] M -3) was 1. For the same molecule, the “normalised current response” value (A. mellifera α5 nAChR; log[Agonist] M -4, listed as TA) was 0.538 and 0.456 and 0.597 and 0.416 and 0.62, the “normalised current response” value (A. mellifera α5 nAChR; log[Agonist] M -5) was 0 and the Emax at 1000 µM (A. mellifera α5 nAChR; [4]) was 770%. The “type of agonist action relative to ACh” value (A. mellifera α5 nAChR; wild-type) was “superagonists” and the “response of water-injected oocytes” value [2] was “no tyramine and octopamine responses”.
For `N[C@@H](CCC(=O)O)C(=O)O` [glutamate], the agonist response (A. mellifera α5 nAChR; [3]) was “none of them were able to induce detectable responses; also recorded: no agonist actions”.
With `COc1cc(CCO)ccc1O` [homovanillyl alcohol] the agonist response (A. mellifera α5 nAChR; 100 μM or 1 mM) was “did not elicit a response; also recorded: no agonist actions”.
In the case of `NCC(=O)O` [glycine], the agonist response (A. mellifera α5 nAChR; [3]) is reported as “none of them were able to induce detectable responses; also recorded: no agonist actions”.
For `NCCc1c[nH]c2ccc(O)cc12` [Serotonin], the Hill coefficient (A. mellifera α5 nAChR; [6]) was 3.419 (2.503–4.335) and the Emax (A. mellifera α5 nAChR; [4]) was 238%.
In the case of `C[N+](C)(C)CCO` [Choline], the Hill coefficient (A. mellifera α5 nAChR) is reported as 2.043 (0.9065–3.180), the EC50 (A. mellifera α5 nAChR; EC50) is reported as 9070 µM and the Emax (A. mellifera α5 nAChR; [4]) is reported as 100%.
For `NCCc1ccc(O)c(O)c1` [Dopamine, dopamine], the Hill coefficient (A. mellifera α5 nAChR) was 2.220 (1.585–2.855), the “effect of absence of Na+ on agonist response” value (A. mellifera α5 nAChR) was “eliminated the response” and the response on co-application (A. mellifera α5 nAChR) was “synergistic agonism”. For the same molecule, the “response when applied alone” value (A. mellifera α5 nAChR) was “did not induce detectable responses” and the “response of water-injected oocytes” value [2] was “no detectable response; also recorded: no responses were detected”.
